Measured values published in US11987588B2, “Modulators of the beta-3 adrenergic receptor useful for the treatment or prevention of heart failure and disorders related thereto” (Arena Pharmaceuticals, Inc., priority 2017, dated 2024).

Biological target: Beta-3 Adrenergic Receptor (Homo sapiens (Human), UniProt P13945)
Test: Homogeneous Time-Resolved Fluorescence (HTRF) cAMP antagonist assay, IC50 determination
Assay type: cell-based
Details: CHO-K1 cells stably expressing recombinant receptor, isoproterenol at EC90
Method in brief: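 Antagonist mode: isoproterenol at its predetermined EC90 added after compound to recombinant CHO-K1 cells in IBMX-containing PBS, 1 h, room temperature. Compounds tested as 5-fold, 10-point dilutions, top final typically 10 or 100 μM. HTRF signal converted to cAMP via standard curve, giving IC50.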

Beta-3 Adrenergic Receptor, sequence (P13945 whole entry, species assumed): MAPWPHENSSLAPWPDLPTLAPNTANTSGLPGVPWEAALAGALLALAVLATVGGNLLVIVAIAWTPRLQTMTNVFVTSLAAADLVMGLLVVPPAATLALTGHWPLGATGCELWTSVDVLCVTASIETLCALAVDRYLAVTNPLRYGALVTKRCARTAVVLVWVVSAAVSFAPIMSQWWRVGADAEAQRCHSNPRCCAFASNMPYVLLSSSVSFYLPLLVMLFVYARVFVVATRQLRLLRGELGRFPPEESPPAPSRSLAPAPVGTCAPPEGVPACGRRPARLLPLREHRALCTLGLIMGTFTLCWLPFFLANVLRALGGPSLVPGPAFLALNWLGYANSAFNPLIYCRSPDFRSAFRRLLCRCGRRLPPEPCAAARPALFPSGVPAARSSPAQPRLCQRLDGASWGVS

| IC50 [nM] | Compound |
| --- | --- |
| 22.1 | CNS(=O)(=O)c1cccc(OC[C@@H](O)CNC2COC3(CCN(S(=O)(=O)c4cccc(-c5sc(C)nc5C)c4)CC3)C2)c1 (stereo partly drawn) [Compound 73, 3-((2S)-3-(8-(3-(2,4-dimethylthiazol-5-yl)phenylsulfonyl)-1-oxa-8-azaspiro[4.5]decan-3-ylamino)-2-hydroxypropoxy)-N-methylbenzenesulfonamide] |
| 14.5 | CNS(=O)(=O)c1cccc(OC[C@@H](O)CNC2COC3(CCN(S(=O)(=O)c4cccc(-c5c(C)noc5C)c4)CC3)C2)c1 (stereo partly drawn) [Compound 59, 3-((2S)-3-(8-(3-(3,5-dimethylisoxazol-4-yl)phenylsulfonyl)-1-oxa-8-azaspiro[4.5]decan-3-ylamino)-2-hydroxypropoxy)-N-methylbenzenesulfonamide] |
| 191 | CN1CCOc2ncc(S(=O)(=O)N3CCC4(CC3)C[C@@H](NC[C@H](O)COc3cccc(S(=O)(=O)N[C@@H]5CCCC[C@@H]5O)c3)CO4)cc21 [Compound 435, 3-((S)-2-hydroxy-3-((R)-8-(1-methyl-2,3-dihydro-1H-pyrido[2,3-b][1,4]oxazin-7-ylsulfonyl)-1-oxa-8-azaspiro[4.5]decan-3-ylamino)propoxy)-N-((1R,2S)-2-hydroxycyclohexyl)benzenesulfonamide] |
| 12.1 | CNS(=O)(=O)c1cccc(OC[C@@H](O)CNC2COC3(CCN(S(=O)(=O)c4cc(F)ccc4C)CC3)C2)c1 (stereo partly drawn) [Compound 204, 3-((2S)-3-(8-(5-fluoro-2-methylphenylsulfonyl)-1-oxa-8-azaspiro[4.5]decan-3-ylamino)-2-hydroxypropoxy)-N-methylbenzenesulfonamide] |
| 11.6 | CNS(=O)(=O)c1cccc(OC[C@@H](O)CN[C@@H]2COC3(CCN(S(=O)(=O)c4cccc(-c5cccnc5)c4)CC3)C2)c1 [Compound 284, 3-((S)-2-hydroxy-3-((S)-8-(3-(pyridin-3-yl)phenylsulfonyl)-1-oxa-8-azaspiro[4.5]decan-3-ylamino)propoxy)-N-methylbenzenesulfonamide] |
| 105 | CNS(=O)(=O)c1cccc(OC[C@@H](O)CNC2COC3(CCN(S(=O)(=O)c4ccc5c(c4)CC(=O)N5)CC3)C2)c1 (stereo partly drawn) [Compound 182, 3-((2S)-2-hydroxy-3-(8-(2-oxoindolin-5-ylsulfonyl)-1-oxa-8-azaspiro[4.5]decan-3-ylamino)propoxy)-N-methylbenzenesulfonamide] |
| 49.6 | CNS(=O)(=O)c1cccc(OC[C@@H](O)CNC2COC3(CCN(S(=O)(=O)c4cc(Br)ccc4OCCN4CCCC4)CC3)C2)c1 (stereo partly drawn) [Compound 412, 3-((2S)-3-(8-(5-bromo-2-(2-(pyrrolidin-1-yl)ethoxy)phenylsulfonyl)-1-oxa-8-azaspiro[4.5]decan-3-ylamino)-2-hydroxypropoxy)-N-methylbenzenesulfonamide] |
| 54.3 | CNS(=O)(=O)c1cccc(OC[C@@H](O)CNC2COC3(CCN(S(=O)(=O)c4c(Cl)ccc5nonc45)CC3)C2)c1 (stereo partly drawn) [Compound 262, 3-((2S)-3-(8-(5-chlorobenzo[c][1,2,5]oxadiazol-4-ylsulfonyl)-1-oxa-8-azaspiro[4.5]decan-3-ylamino)-2-hydroxypropoxy)-N-methylbenzenesulfonamide] |
| 352 | CNS(=O)(=O)c1cccc(OC[C@@H](O)CNC2COC3(CCN(c4cc(Cl)ccn4)CC3)C2)c1 (stereo partly drawn) [Compound 433, 3-((2S)-3-(8-(4-chloropyridin-2-yl)-1-oxa-8-azaspiro[4.5]decan-3-ylamino)-2-hydroxypropoxy)-N-methylbenzenesulfonamide] |
| 20.8 | CNS(=O)(=O)c1cccc(OC[C@@H](O)CN[C@H]2COC3(CCN(S(=O)(=O)c4cnc5ccc(F)cc5c4O)CC3)C2)c1 [Compound 534, 3-((S)-3-((R)-8-(6-fluoro-4-hydroxyquinolin-3-ylsulfonyl)-1-oxa-8-azaspiro[4.5]decan-3-ylamino)-2-hydroxypropoxy)-N-methylbenzenesulfonamide] |
| 9.02 | CCN1CCOc2ccc(S(=O)(=O)N3CCC4(CC3)CC(NC[C@H](O)COc3cccc(S(=O)(=O)NC)c3)CO4)cc21 (stereo partly drawn) [Compound 333, 3-((2S)-3-(8-(4-ethyl-3,4-dihydro-2H-benzo[b][1,4]oxazin-6-ylsulfonyl)-1-oxa-8-azaspiro[4.5]decan-3-ylamino)-2-hydroxypropoxy)-N-methylbenzenesulfonamide] |
| 15 | CNS(=O)(=O)c1cccc(OC[C@@H](O)CNC2COC3(CCN(S(=O)(=O)c4cccc(F)c4Cl)CC3)C2)c1 (stereo partly drawn) [Compound 199, 3-((2S)-3-(8-(2-chloro-3-fluorophenylsulfonyl)-1-oxa-8-azaspiro[4.5]decan-3-ylamino)-2-hydroxypropoxy)-N-methylbenzenesulfonamide] |
| 17.6 | CNS(=O)(=O)c1cccc(OC[C@@H](O)CNC2COC3(CCN(S(=O)(=O)c4ccccc4C(F)(F)F)CC3)C2)c1 (stereo partly drawn) [Compound 33, 3-((2S)-2-hydroxy-3-(8-(2-(trifluoromethyl)phenylsulfonyl)-1-oxa-8-azaspiro[4.5]decan-3-ylamino)propoxy)-N-methylbenzenesulfonamide] |
| 107 | CCn1cc(-c2cccc(S(=O)(=O)N3CCC4(CC3)CC(NC[C@H](O)COc3cccc(S(=O)(=O)N(C)C)c3)CO4)c2)cn1 (stereo partly drawn) [Compound 272, 3-((2S)-3-(8-(3-(1-ethyl-1H-pyrazol-4-yl)phenylsulfonyl)-1-oxa-8-azaspiro[4.5]decan-3-ylamino)-2-hydroxypropoxy)-N,N-dimethylbenzenesulfonamide] |
| 367 | CNS(=O)(=O)c1cccc(OC[C@@H](O)CNC2COC3(CCN(S(=O)(=O)c4cccnc4N4CCOCC4)CC3)C2)c1 (stereo partly drawn) [Compound 442, 3-((2S)-2-hydroxy-3-(8-(2-morpholinopyridin-3-ylsulfonyl)-1-oxa-8-azaspiro[4.5]decan-3-ylamino)propoxy)-N-methylbenzenesulfonamide] |
| 37 | CNS(=O)(=O)c1cccc(OC[C@@H](O)CNC2COC3(CCN(S(=O)(=O)c4ccc5cn[nH]c5c4)CC3)C2)c1 (stereo partly drawn) [Compound 328, 3-((2S)-3-(8-(1H-indazol-6-ylsulfonyl)-1-oxa-8-azaspiro[4.5]decan-3-ylamino)-2-hydroxypropoxy)-N-methylbenzenesulfonamide] |
| 184 | CN1CCOc2ncc(S(=O)(=O)N3CCC4(CC3)C[C@@H](NC[C@H](O)COc3cccc(S(=O)(=O)N[C@H]5CCC[C@@H]5O)c3)CO4)cc21 [Compound 427, 3-((S)-2-hydroxy-3-((R)-8-(1-methyl-2,3-dihydro-1H-pyrido[2,3-b][1,4]oxazin-7-ylsulfonyl)-1-oxa-8-azaspiro[4.5]decan-3-ylamino)propoxy)-N-((1S,2S)-2-hydroxycyclopentyl)benzenesulfonamide] |
| 112 | CC(C)NCc1ccc(-c2cccc(S(=O)(=O)N3CCC4(CC3)C[C@@H](NC[C@H](O)COc3cccc(S(N)(=O)=O)c3)CO4)c2)cc1 [Compound 440, 3-((S)-2-hydroxy-3-((R)-8-(4′-((isopropylamino)methyl)biphenyl-3-ylsulfonyl)-1-oxa-8-azaspiro[4.5]decan-3-ylamino)propoxy)benzenesulfonamide] |
| 33.1 | CCNS(=O)(=O)c1cccc(OC[C@@H](O)CNC2COC3(CCN(S(=O)(=O)c4cccc(Cl)c4)CC3)C2)c1 (stereo partly drawn) [Compound 224, 3-((2S)-3-(8-(3-chlorophenylsulfonyl)-1-oxa-8-azaspiro[4.5]decan-3-ylamino)-2-hydroxypropoxy)-N-ethylbenzenesulfonamide] |
| 411 | CNS(=O)(=O)c1cccc(OC[C@@H](O)CN[C@H]2COC3(CCN(c4nccc(OC)n4)CC3)C2)c1 [Compound 568, 3-((S)-2-hydroxy-3-((R)-8-(4-methoxypyrimidin-2-yl)-1-oxa-8-azaspiro[4.5]decan-3-ylamino)propoxy)-N-methylbenzenesulfonamide] |
